{
  "source": "the supplement of paper PMC10307832",
  "test_in_all_cases": "relative viability (nuclei count vs DMSO), 5 days (fraction); higher = more cells survive",
  "key": {"[1]": {"test_system": "NCI-H1395", "how_it_was_run": "(§1)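 Relative viability is defined as nuclei in treated wells over nuclei in vehicle wells. Duplicate plates were run and medians reported. Lung cancer cell lines in 1536-well plates were dosed by pin tool one day after seeding, with one drug or with a fixed anchor-drug dose plus five library-drug doses (not always all listed) in √10 steps, and nuclei were counted after 5 days.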"}, "[2]": {"test_system": "PC-14", "how_it_was_run": "as §1"}, "[3]": {"test_system": "NCI-H441", "how_it_was_run": "as §1"}, "[4]": {"test_system": "NCI-H1975", "how_it_was_run": "as §1"}, "[5]": {"test_system": "A-427", "how_it_was_run": "as §1"}, "[6]": {"test_system": "NCI-H838", "how_it_was_run": "as §1"}, "[7]": {"test_system": "LXF-289", "how_it_was_run": "as §1"}, "[8]": {"test_system": "RERF-LC-KJ", "how_it_was_run": "as §1"}, "[9]": {"test_system": "HCC-44", "how_it_was_run": "as §1"}, "[10]": {"test_system": "H3255", "how_it_was_run": "as §1"}, "[11]": {"test_system": "NCI-H2405", "how_it_was_run": "as §1"}, "[12]": {"test_system": "NCI-H2170", "how_it_was_run": "as §1"}, "[13]": {"test_system": "NCI-H2347", "how_it_was_run": "as §1"}, "[14]": {"test_system": "HCC-366", "how_it_was_run": "as §1"}, "[15]": {"test_system": "HARA", "how_it_was_run": "as §1"}, "[16]": {"test_system": "NCI-H1915", "how_it_was_run": "as §1"}, "[17]": {"test_system": "LCLC-97TM1", "how_it_was_run": "as §1"}, "[18]": {"test_system": "NCI-H1755", "how_it_was_run": "as §1"}, "[19]": {"test_system": "NCI-H3122", "how_it_was_run": "as §1"}, "[20]": {"test_system": "NCI-H1993", "how_it_was_run": "as §1"}},
  "data": [
    {"smiles": "Oc1nc(-c2ccc(C(F)(F)F)cc2)nc2c1CSCC2", "note": "[XAV939] + NC(=O)Nc1cc(-c2cccc(F)c2)sc1C(=O)N[C@H]1CCCNC1 [AZD7762] (partner 0.2 µM)", "values": [
      {"measurement": "relative viability", "setting": "[1]; first compound 0.08 µM", "result": 0.389},
      {"measurement": "relative viability", "setting": "[1]; first compound 0.253 µM", "result": 0.384},
      {"measurement": "relative viability", "setting": "[1]; first compound 0.8 µM", "result": 0.377},
      {"measurement": "relative viability", "setting": "[1]; first compound 2.53 µM", "result": 0.366},
      {"measurement": "relative viability", "setting": "[2]; first compound 0.08 µM", "result": 0.352},
      {"measurement": "relative viability", "setting": "[2]; first compound 0.253 µM", "result": 0.333},
      {"measurement": "relative viability", "setting": "[2]; first compound 0.8 µM", "result": 0.304},
      {"measurement": "relative viability", "setting": "[2]; first compound 2.53 µM", "result": 0.345},
      {"measurement": "relative viability", "setting": "[3]; first compound 0.08 µM", "result": 1.08},
      {"measurement": "relative viability", "setting": "[3]; first compound 0.253 µM", "result": 0.947},
      {"measurement": "relative viability", "setting": "[3]; first compound 0.8 µM", "result": 1.27},
      {"measurement": "relative viability", "setting": "[3]; first compound 2.53 µM", "result": 1.27},
      {"measurement": "relative viability", "setting": "[4]; first compound 0.08 µM", "result": 0.684},
      {"measurement": "relative viability", "setting": "[4]; first compound 0.253 µM", "result": 0.534},
      {"measurement": "relative viability", "setting": "[4]; first compound 0.8 µM", "result": 0.504},
      {"measurement": "relative viability", "setting": "[4]; first compound 2.53 µM", "result": 0.516},
      {"measurement": "relative viability", "setting": "[5]; first compound 0.08 µM", "result": 0.816},
      {"measurement": "relative viability", "setting": "[5]; first compound 0.253 µM", "result": 0.684},
      {"measurement": "relative viability", "setting": "[5]; first compound 0.8 µM", "result": 0.706},
      {"measurement": "relative viability", "setting": "[5]; first compound 2.53 µM", "result": 0.696},
      {"measurement": "relative viability", "setting": "[6]; first compound 0.08 µM", "result": 0.93},
      {"measurement": "relative viability", "setting": "[6]; first compound 0.253 µM", "result": 0.842},
      {"measurement": "relative viability", "setting": "[6]; first compound 0.8 µM", "result": 0.923},
      {"measurement": "relative viability", "setting": "[6]; first compound 2.53 µM", "result": 0.799},
      {"measurement": "relative viability", "setting": "[7]; first compound 0.08 µM", "result": 1.16},
      {"measurement": "relative viability", "setting": "[7]; first compound 0.253 µM", "result": 1.04},
      {"measurement": "relative viability", "setting": "[7]; first compound 0.8 µM", "result": 1.1},
      {"measurement": "relative viability", "setting": "[7]; first compound 2.53 µM", "result": 1.21},
      {"measurement": "relative viability", "setting": "[8]; first compound 0.08 µM", "result": 0.925},
      {"measurement": "relative viability", "setting": "[8]; first compound 0.253 µM", "result": 0.711},
      {"measurement": "relative viability", "setting": "[8]; first compound 0.8 µM", "result": 0.848},
      {"measurement": "relative viability", "setting": "[8]; first compound 2.53 µM", "result": 0.69},
      {"measurement": "relative viability", "setting": "[9]; first compound 0.08 µM", "result": 0.899},
      {"measurement": "relative viability", "setting": "[9]; first compound 0.253 µM", "result": 0.89},
      {"measurement": "relative viability", "setting": "[9]; first compound 0.8 µM", "result": 0.953},
      {"measurement": "relative viability", "setting": "[9]; first compound 2.53 µM", "result": 0.872},
      {"measurement": "relative viability", "setting": "[10]; first compound 0.08 µM", "result": 0.858},
      {"measurement": "relative viability", "setting": "[10]; first compound 0.253 µM", "result": 0.753},
      {"measurement": "relative viability", "setting": "[10]; first compound 0.8 µM", "result": 0.773},
      {"measurement": "relative viability", "setting": "[10]; first compound 2.53 µM", "result": 0.669},
      {"measurement": "relative viability", "setting": "[11]; first compound 0.08 µM", "result": 0.701},
      {"measurement": "relative viability", "setting": "[11]; first compound 0.253 µM", "result": 0.731},
      {"measurement": "relative viability", "setting": "[11]; first compound 0.8 µM", "result": 0.672},
      {"measurement": "relative viability", "setting": "[11]; first compound 2.53 µM", "result": 0.569},
      {"measurement": "relative viability", "setting": "[12]; first compound 0.08 µM", "result": 0.867},
      {"measurement": "relative viability", "setting": "[12]; first compound 0.253 µM", "result": 0.692},
      {"measurement": "relative viability", "setting": "[12]; first compound 0.8 µM", "result": 0.823},
      {"measurement": "relative viability", "setting": "[12]; first compound 2.53 µM", "result": 0.532},
      {"measurement": "relative viability", "setting": "[13]; first compound 0.08 µM", "result": 0.803},
      {"measurement": "relative viability", "setting": "[13]; first compound 0.253 µM", "result": 0.612},
      {"measurement": "relative viability", "setting": "[13]; first compound 0.8 µM", "result": 0.796},
      {"measurement": "relative viability", "setting": "[13]; first compound 2.53 µM", "result": 0.58},
      {"measurement": "relative viability", "setting": "[14]; first compound 0.08 µM", "result": 0.423},
      {"measurement": "relative viability", "setting": "[14]; first compound 0.253 µM", "result": 0.211},
      {"measurement": "relative viability", "setting": "[14]; first compound 0.8 µM", "result": 0.188},
      {"measurement": "relative viability", "setting": "[14]; first compound 2.53 µM", "result": 0.132},
      {"measurement": "relative viability", "setting": "[15]; first compound 0.08 µM", "result": 0.671},
      {"measurement": "relative viability", "setting": "[15]; first compound 0.253 µM", "result": 0.305},
      {"measurement": "relative viability", "setting": "[15]; first compound 0.8 µM", "result": 0.271},
      {"measurement": "relative viability", "setting": "[15]; first compound 2.53 µM", "result": 0.294},
      {"measurement": "relative viability", "setting": "[16]; first compound 0.08 µM", "result": 0.898},
      {"measurement": "relative viability", "setting": "[16]; first compound 0.253 µM", "result": 0.674},
      {"measurement": "relative viability", "setting": "[16]; first compound 0.8 µM", "result": 0.693},
      {"measurement": "relative viability", "setting": "[16]; first compound 2.53 µM", "result": 0.665},
      {"measurement": "relative viability", "setting": "[17]; first compound 0.08 µM", "result": 0.446},
      {"measurement": "relative viability", "setting": "[17]; first compound 0.8 µM", "result": 0.208},
      {"measurement": "relative viability", "setting": "[17]; first compound 2.53 µM", "result": 0.172},
      {"measurement": "relative viability", "setting": "[18]; first compound 0.08 µM", "result": 0.394},
      {"measurement": "relative viability", "setting": "[18]; first compound 0.253 µM", "result": 0.501},
      {"measurement": "relative viability", "setting": "[18]; first compound 0.8 µM", "result": 0.443},
      {"measurement": "relative viability", "setting": "[18]; first compound 2.53 µM", "result": 0.458},
      {"measurement": "relative viability", "setting": "[19]; first compound 0.08 µM", "result": 1.01},
      {"measurement": "relative viability", "setting": "[19]; first compound 0.253 µM", "result": 0.964},
      {"measurement": "relative viability", "setting": "[19]; first compound 0.8 µM", "result": 0.9},
      {"measurement": "relative viability", "setting": "[19]; first compound 2.53 µM", "result": 0.573},
      {"measurement": "relative viability", "setting": "[20]; first compound 0.08 µM", "result": 0.923},
      {"measurement": "relative viability", "setting": "[20]; first compound 0.253 µM", "result": 0.569},
      {"measurement": "relative viability", "setting": "[20]; first compound 0.8 µM", "result": 0.62},
      {"measurement": "relative viability", "setting": "[20]; first compound 2.53 µM", "result": 0.653}
    ]}
  ]
}
